Where a name gives a salt, the structure may show the parent alone. Read-outs that look alike come from different tables or passages of the source.
Tests used:
[1] = Metabolic stability in mouse liver microsomes (MLM); format: in vitro ADME, CD-1 mice; conditions: CD-1, mouse, pooled mouse liver microsomes, pH 7.4, NADPH
Experimental: MLM Stability. Pooled MLM from CD-1 mice (BIOIVT M00501) were used. Microsomal incubations were carried out in multi-well plates. […] Control incubations were performed by replacing the NADPH-cofactor system with PBS. Test compounds (1 μM, final solvent concentration 1.0%) were incubated with microsomes at 37° C. with constant shaking. Six time points over 60 minutes were analyzed, with 60 μL aliquots of the reaction mixture being drawn at each time point.

CYP3A4 = CYP3A4 (Homo sapiens (Human), UniProt P08684); assay: CYP inhibition in human liver microsomes, CYP3A4; format: in vitro ADME; conditions: for inhibition at 10 min, 10 µM: both sexes, human, pooled human liver microsomes, pH 7.4, probe midazolam (2 μM), HLM, midazolam substrate, read-out: CYP 3A4 % Inhibition at 10 μM
[2] = tested on: monoamine oxidase A and B (MAO-A and MAO-B); assay: Stability in the presence of monoamine oxidases (human liver mitochondria); format: in vitro ADME; conditions: for MAO stability (in words): human liver mitochondria preparation; for half-life at 1 μM / microsomal CLint at 1 μM: human liver mitochondria, pH 7.4; for half-life at 1 μM / microsomal CLint at 1 μM / Remaining (t = 60 min): human mitochondrial preparation, 1 μM
Experimental: Liver Mitochondria Incubations. Human liver mitochondria (Xenotech H0610.M) were used. Mitochondrial incubations were carried out in multi-well plates. […] Six time points over 60 minutes were analyzed.

5-HT2B = 5-HT2B (Homo sapiens (Human), UniProt P41595); assay: FLIPR Ca2+ flux agonist assay, 5-HT2B; format: cell-based; conditions: for 5-HT2B % Act @ Max Dose: Ca2+ flux, HEK293
Experimental: (§1) A solution of 250 mM probenecid in 1 mL FLIPR assay buffer was prepared fresh. This was combined with a fluorescent dye (Fluo-4 Direct™) to make a final assay concentration of 2.5 mM. […] The fluorescent dye was then added to the assay plate along with assay buffer to a final volume of 40 μL. The cell plate was incubated for 50 min at 37° C. and 5% CO2 and placed into the FLIPR Tetra along with the compound plate. 10 μL of references and compounds were then transferred from the compound plate into the cell plate and the fluorescent signal was read.

5-HT1A = 5-HT1A (Homo sapiens (Human), UniProt P08908); assay: FLIPR Ca2+ flux agonist assay, 5-HT1A; format: cell-based
Experimental: as §1

C57BL/6 mice = assay: Head twitch response (HTR) in mice; format: in vivo; conditions: for Average HTR: 20 mins; for maximal effect in HTR: SC, maximal over tested doses
Experimental: Animals. Adult male C57BL/6 mice, aged 8 weeks (body weight 20-25 g) were used in these experiments. Animals were housed under controlled temperatures and 12-hour light/dark cycles (lights on between 07:00-19:00 h), with ad libitum food and water. The protocol was approved by the Eurofins Advinus Institutional Animal Care and Use Committee. This study was carried out in strict accordance with the recommendations in the Guide for the Care and Use of Laboratory Animals of the National Institutes of Health. All efforts were made to minimize suffering.
Drugs and Drug administration. Compounds 3 and 4 were prepared as described above. All other compounds were commercially obtained. Test compounds were used as the hydrogen fumarate (1 and 2) or hydrochloride (DOI, 3, and 4) salts. Drugs were dissolved in a vehicle consisting of normal saline and administered subcutaneously (SC) in a volume of 10 ml/kg. Test compounds were administered at 5 doses per compound (0.1 to 100 mg/kg, as indicated, calculated based on the free base) using N=6 animals/group. […] For blockade experiments, MDL100907 (0.1 mg/kg, SC) was administered 10 mins prior to the test compound.
Procedure. Mice were administered one dose of a test drug (or vehicle) s.c. and immediately placed into a small open field for behavioral observation. Animals were observed continuously for 20 mins and the number of HTRs were counted by an observer blind to the treatment condition.
Statistical analysis. The data points shown in Table 11 are the mean ±standard error of the mean (SEM). Analysis was performed using GraphPad Prism 9.

[3] = Stability in mouse brain homogenate; format: in vitro ADME, CD-1 mice; conditions: for half-life at 1 μM: male, CD-1; for half-life at 1 μM / % Compound Remaining (after 120 min): mouse brain homogenate, 37° C., 1 μM
Experimental: Mouse Brain Homogenate Stability. Frozen mouse brain homogenate (pooled from male CD-1 mice, BioreclamationIVT, MSE00BRAINMZA) was thawed in a water bath at 37° C. immediately prior to use. Positive controls and test compounds (final concentration in incubation medium=1 μM for test compounds and 2 μM for controls, all with 2% DMSO) were incubated in duplicate for each time point (0, 10, 30, 60, and 120 min) in the mouse brain homogenate at a total reaction volume of […] at 37° C. At the end of each incubation period, reactions were immediately quenched with 400 μL of acetonitrile containing internal standard (200 ng/mL tolbutamine and 200 ng/ml labetalol) and mixed thoroughly. Plates were then sealed, shaken for 20 min, and centrifuged at 4,000 rpm and 4° C. for 20 min. Aliquots of 50 μL of each supernatant were diluted into 100 μL of water and the mixtures were then shaken again for 10 min.

[4] = Stability in rat brain homogenate; format: in vitro ADME, Sprague Dawley rats; conditions: for half-life at 1 μM: male, Sprague Dawley; for half-life at 1 μM / % Compound Remaining (after 120 min): rat brain homogenate, 37° C., 1 μM
Experimental: Rat Brain Homogenate Stability. Frozen rat brain homogenate (pooled from male Sprague Dawley rats, BioreclamationIVT, RATOOBRAINMZA) was thawed in a water bath at 37° C. immediately prior to use. Positive controls and test compounds (final concentration in incubation medium=1 μM for test compounds and 2 μM for controls, all with 2% DMSO) were incubated in duplicate for each time point (0, 10, 30, 60, and 120 min) in the rat brain homogenate at a total reaction volume of 100 μL at 37° C. At the end of each incubation period, reactions were immediately quenched with 400 μL of acetonitrile containing internal standard (200 ng/ml tolbutamine and 200 ng/ml labetalol) and mixed thoroughly. Plates were then sealed, shaken for 20 min, and centrifuged at 4,000 rpm and 4° C. for 20 min. Aliquots of 50 μL of each supernatant were diluted into 100 uL of water and the mixtures were then shaken again for 10 min.

5-HT2B, sequence (P41595 whole entry, looked up, species assumed): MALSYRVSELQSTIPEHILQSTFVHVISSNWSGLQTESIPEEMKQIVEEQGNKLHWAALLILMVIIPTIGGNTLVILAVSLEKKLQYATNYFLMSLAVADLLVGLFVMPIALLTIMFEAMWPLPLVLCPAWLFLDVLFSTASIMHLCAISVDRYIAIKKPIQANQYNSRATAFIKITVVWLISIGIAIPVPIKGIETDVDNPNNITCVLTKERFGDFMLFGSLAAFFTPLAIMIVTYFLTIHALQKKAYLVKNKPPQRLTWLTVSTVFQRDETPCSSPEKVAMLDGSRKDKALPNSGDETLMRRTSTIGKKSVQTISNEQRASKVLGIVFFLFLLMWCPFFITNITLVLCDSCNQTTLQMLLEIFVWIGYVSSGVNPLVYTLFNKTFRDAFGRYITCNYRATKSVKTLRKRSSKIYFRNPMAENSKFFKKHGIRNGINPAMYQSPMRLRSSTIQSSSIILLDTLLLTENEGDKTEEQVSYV
CYP3A4, sequence (P08684 whole entry, looked up): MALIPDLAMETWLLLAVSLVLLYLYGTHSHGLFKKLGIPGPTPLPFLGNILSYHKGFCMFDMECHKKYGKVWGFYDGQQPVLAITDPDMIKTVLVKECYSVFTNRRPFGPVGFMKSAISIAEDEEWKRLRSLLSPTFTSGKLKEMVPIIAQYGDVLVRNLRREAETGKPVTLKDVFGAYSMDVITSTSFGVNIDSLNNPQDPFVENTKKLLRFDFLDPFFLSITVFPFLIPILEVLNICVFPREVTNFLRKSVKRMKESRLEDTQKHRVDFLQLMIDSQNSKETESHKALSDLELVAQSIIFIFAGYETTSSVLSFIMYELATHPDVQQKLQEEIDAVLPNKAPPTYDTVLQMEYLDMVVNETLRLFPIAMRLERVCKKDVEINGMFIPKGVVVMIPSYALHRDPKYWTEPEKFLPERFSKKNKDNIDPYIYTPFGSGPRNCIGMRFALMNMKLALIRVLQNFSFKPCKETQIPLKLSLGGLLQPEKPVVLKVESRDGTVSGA

Compound	half-life at 1 μM [1] [h]	microsomal CLint at 1 μM [1] [µL/min/mg]	MAO stability (in words) [2]	half-life at 1 μM [2] [h]	microsomal CLint at 1 μM [2] [µL/min/mg]	Remaining (t = 60 min) [2] [%]	5-HT2B % Act @ Max Dose (5-HT2B) [%]	EC50 (5-HT1A) [µM]	5-HT1A % Act @ Max Dose (5-HT1A; Ca2+ flux, CHO cells) [%]	Average HTR (C57BL/6 mice; 1 mg/kg SC)	Average HTR (C57BL/6 mice; 10 mg/kg SC)	maximal effect in HTR (C57BL/6 mice) [head twitches/20 min]	stability in mouse brain homogenate (in words) [3]	half-life at 1 μM [3] [h]	% Compound Remaining (after 120 min) [3] [%]	stability in rat brain homogenate (in words) [4]	half-life at 1 μM [4] [h]	% Compound Remaining (after 120 min) [4] [%]	IC50 (CYP3A4) [µM]	further results
CCCN(CC)CCc1c[nH]c2ccccc12 [Compound 1, ethylpropyltryptamine]	0.1	231	highly stable	> 2.42	< 15.9	95.1	80.4	88.7	75.5	14.667	8.000	14.7	high stability	> 4.82	113.8	high stability	> 4.82	86.9		inhibition at 10 min, 10 µM (CYP3A4): 2%; EC50 (5-HT2B): 0.0403 µM; Average HTR (C57BL/6 mice; 100 mg/kg SC): 4.500
CCN(C)CCc1c[nH]c2ccccc12 [Compound 2, methylethyltryptamine]	1.7	13.6	intermediate stability	> 2.42	< 15.9	84.5	22.5	59.5	73.6	3.667	2.500	6.00	intermediate stability	2.05	47.8	high stability	> 4.82	76.5	> 50	inhibition at 10 min, 10 µM (CYP3A4): 0%; Average HTR (C57BL/6 mice; 100 mg/kg SC): 0.500
CCCN(CC)CCc1c[nH]c2ccc(F)cc12 [Compound 3, N-ethyl-N-(2-(5-fluoro-1H-indol-3-yl)ethyl) propan-1-amine hydrochloride]	0.0917	250	highly stable	> 2.42	< 15.9	97.7	64.64	19.6	88.34	29.333	26.333	29.33	high stability	> 4.82	76.7	high stability	> 4.82	103.3	> 50	EC50 (5-HT2B): 0.0154 µM; Average HTR (C57BL/6 mice; 0.1 mg/kg SC): 12.5
CN(C)CCc1c[nH]c2ccc(F)cc12 [Compound 5, 2-(5-fluoro-1H-indol-3-yl)-N,N-dimethylethan-1-amine hydrochloride]	0.455	50.8	highly metabolized	0.145	266	0.9							highly unstable	0.0517	0.0	highly unstable	0.045	0.0		
CCN(C)CCc1c[nH]c2cccc(O)c12 [Compound 6]	> 2.42	< 9.6	highly stable	> 2.42	< 15.9	112.3	1.09		72.96				intermediate stability	0.763	16.7	intermediate stability	0.883	20.9	> 50	EC50 (5-HT1A; Ca2+ flux, CHO cells, read-out: 5-HT1A EC50): 14.7 µM
CN(C)CCc1c[nH]c2ccccc12 [DMT, N,N-dimethyltryptamine, reference compound]	1.15	20.1	highly metabolized	0.285	135	8.9	10.4		68.1				highly unstable	0.107	0.0	highly unstable	0.085	0.0		
CN(C)CCc1c[nH]c2cccc(O)c12 [Psilocin, psilocin, reference compound]	2.11	10.9	highly stable	> 2.42	< 15.9	112.1	1.44	> 3.16	0.720				high stability	> 4.82	97.6	intermediate stability	1.91	46.1		

Source: patent publication US20240317683A1, “METHODS OF TREATING MOOD DISORDERS” (priority 2020, published 2024)
